Measured values published in PubChem BioAssay (NCI).
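Protocol summary: plate cells (96-well), add compound at 5 concentrations, incubate 48 h, interpolate endpoints linearly. The concentration for full growth arrest is given as TGI.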

Tests used:
Assay in all cases: NCI anticancer screen, dose series, 48 h
[1] = test system: SK-OV-3 ovarian
[2] = test system: UACC-257 melanoma
[3] = test system: SF-268 CNS
[4] = test system: SN12C renal
[5] = test system: LOX IMVI melanoma
[6] = test system: A498 renal
[7] = test system: OVCAR-8 ovarian
[8] = test system: UACC-62 melanoma
[9] = test system: SK-MEL-28 melanoma
[10] = test system: PC-3 prostate
[11] = test system: M14 melanoma
[12] = test system: OVCAR-5 ovarian
[13] = test system: BT-549 breast
[14] = test system: SR leukemia
[15] = test system: HT29 colon
[16] = test system: CAKI-1 renal
[17] = test system: SNB-19 CNS
[18] = test system: SW-620 colon
[19] = test system: SK-MEL-5 melanoma
[20] = test system: OVCAR-4 ovarian
[21] = test system: HL-60(TB) leukemia
[22] = test system: ACHN renal
[23] = test system: RXF 393 renal
[24] = test system: NCI/ADR-RES ovarian
[25] = test system: DU-145 prostate
[26] = test system: HCC-2998 colon
[27] = test system: MDA-MB-231 breast
[28] = test system: NCI-H522 lung
[29] = test system: IGROV1 ovarian
[30] = test system: RPMI-8226 leukemia
[31] = test system: EKVX NSCLC
[32] = test system: TK-10 renal
[33] = test system: NCI-H460 lung
[34] = test system: HOP-92 NSCLC
[35] = test system: NCI-H23 lung
[36] = test system: HOP-62 NSCLC
[37] = test system: T-47D breast
[38] = test system: HS 578T breast
[39] = test system: HCT-116 colon
[40] = test system: MDA-MB-435
[41] = test system: OVCAR-3 ovarian
[42] = test system: 786-0 renal
[43] = test system: U251 CNS
[44] = test system: SNB-75 CNS
[45] = test system: A549 NSCLC
[46] = test system: SF-295 CNS
[47] = test system: KM12 colon
[48] = test system: HCT-15 colon
[49] = test system: SK-MEL-2 melanoma
[50] = test system: MOLT-4 leukemia
[51] = test system: NCI-H226 lung
[52] = test system: UO-31 renal
[53] = test system: K-562 leukemia
[54] = test system: MDA-N
[55] = test system: MCF7 breast
[56] = test system: CCRF-CEM leukemia
[57] = test system: COLO 205 colon

CCOC(=O)C1=C(C)C2C=C(c3cccs3)CC(c3ccc(Cl)cc3)=C2OC1=O (configuration not stated)
TGI [1]: > 100 µM | TGI [2]: > 100 µM | TGI [3]: > 100 µM | TGI [4]: > 100 µM | TGI [5]: 37.9 µM | TGI [6]: > 100 µM | TGI [7]: > 100 µM | TGI [8]: > 100 µM | TGI [9]: > 100 µM | TGI [10]: > 100 µM | TGI [11]: > 100 µM | TGI [12]: > 100 µM | TGI [13]: > 100 µM | TGI [14]: 50 µM | TGI [15]: > 100 µM | TGI [16]: > 100 µM | TGI [17]: > 100 µM | TGI [18]: > 100 µM | TGI [19]: > 100 µM | TGI [20]: > 100 µM | TGI [21]: 31.6 µM | TGI [22]: > 100 µM | TGI [23]: > 100 µM | TGI [24]: > 100 µM | TGI [25]: > 100 µM | TGI [26]: 77.3 µM | TGI [27]: > 100 µM | TGI [28]: > 100 µM | TGI [29]: > 100 µM | TGI [30]: 38 µM | TGI [31]: > 100 µM | TGI [32]: > 100 µM | TGI [33]: > 100 µM | TGI [34]: > 100 µM | TGI [35]: > 100 µM | TGI [36]: > 100 µM | TGI [37]: 66.5 µM | TGI [38]: > 100 µM | TGI [39]: 69.2 µM | TGI [40]: > 100 µM | TGI [41]: > 100 µM | TGI [42]: 67.1 µM | TGI [43]: > 100 µM | TGI [44]: > 100 µM | TGI [45]: > 100 µM | TGI [46]: > 100 µM | TGI [47]: 39.8 µM | TGI [48]: 56.5 µM | TGI [49]: > 100 µM | TGI [50]: > 100 µM | TGI [51]: > 100 µM | TGI [52]: > 100 µM | TGI [53]: 34.4 µM | TGI [54]: > 100 µM | TGI [55]: > 100 µM | TGI [56]: 60.1 µM | TGI [57]: > 100 µM
